Assay results from patent US5426103A, “Certain macrocyclic lactam derivatives” (Ciba-Geigy Corporation, priority 1993, dated 1995).

What was measured:
[1] = target: T1, neutral endopeptidase (NEP) (Rattus norvegicus, UniProt P07861); test: inhibition of neutral endopeptidase (NEP), substrate not stated with the result; assay type: biochemical; details: for relative NEP inhibiting activity of isomers: compared with the other isomer; for IC50: substrate (GAAP or ANF) not stated
T1 sequence (P07861 1-750): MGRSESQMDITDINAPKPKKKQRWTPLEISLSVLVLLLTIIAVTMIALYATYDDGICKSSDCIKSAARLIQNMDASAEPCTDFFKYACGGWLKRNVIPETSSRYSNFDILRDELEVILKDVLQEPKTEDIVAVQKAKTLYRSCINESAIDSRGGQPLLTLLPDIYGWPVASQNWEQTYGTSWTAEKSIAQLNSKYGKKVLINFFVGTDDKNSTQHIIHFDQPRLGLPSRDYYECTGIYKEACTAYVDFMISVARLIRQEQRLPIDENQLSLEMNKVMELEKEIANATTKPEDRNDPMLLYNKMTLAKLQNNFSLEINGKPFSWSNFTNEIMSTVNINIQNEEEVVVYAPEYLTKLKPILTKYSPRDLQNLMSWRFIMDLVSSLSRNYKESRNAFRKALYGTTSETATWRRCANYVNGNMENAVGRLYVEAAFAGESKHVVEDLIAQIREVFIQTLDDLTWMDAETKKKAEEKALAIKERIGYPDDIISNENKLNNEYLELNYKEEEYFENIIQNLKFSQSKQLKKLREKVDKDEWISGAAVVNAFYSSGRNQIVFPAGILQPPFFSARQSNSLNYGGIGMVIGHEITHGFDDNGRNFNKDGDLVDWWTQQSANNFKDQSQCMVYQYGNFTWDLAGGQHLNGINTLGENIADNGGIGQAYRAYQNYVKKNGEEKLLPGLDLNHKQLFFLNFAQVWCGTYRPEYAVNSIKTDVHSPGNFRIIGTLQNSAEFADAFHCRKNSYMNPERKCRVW
Protocol: The in vitro inhibition of neutral endopeptidase (NEP) 3.4.24.11 can be determined as follows:
Neutral endopeptidase 3.4.24.11 activity is determined by the hydrolysis of the substrate glutaryl-Ala-Ala-Phe-2-naphthylamide (GAAP) using a modified procedure of Orlowski and Wilk (1981). The incubation mixture (total volume 125 μl) contains 4.2 μg of protein (rat kidney cortex membranes prepared by method of Maeda et al, 1983), 50 mM tris buffer, pH 7.4 at 25° C., 500 μM substrate (final concentration), and leucine aminopeptidase M (2.5 μg). The mixture is incubated for 10 minutes at 25° C. and 100 μl of fast garnet (250 μg fast garnet/ml of 10% Tween 20 in 1M sodium acetate, pH 4.2) is added. Enzyme activity is measured spectrophotometrically at 540 nm. One unit of NEP 24.11 activity is defined as 1 nmol of 2-naphthylamine released per minute at 25° C. at pH 7.4. IC50 values for inhibition of the enzyme are determined, i.e. the concentration of test compound required for 50% inhibition of the release of 2-naphthylamine.
Neutral endopeptidase activity is also determined using ANF as a substrate. A trial natriuretic factor degrading activity is determined by measuring the disappearance of rat-ANF (r-ANF) using a 3 minute reverse phase-HPLC separation. An aliquot of the enzyme in 50 mM Tris HCl buffer, pH 7.4, is preincubated at 37° C. for 2 minutes and the reaction is initiated by the addition of 4 nmol of r-ANF in a total volume of 50 μl. The reaction is terminated after 4 minutes with the addition of 30 μl of 0.27% trifluoroacetic acid (TFA). Forty microliters of the mixture is injected into a reverse phase-HPLC and analyzed using a C4 cartridge in a 3 minute, isocratic separation. Twenty-three percent of buffer B (0.1% TFA in 80% acetonitrile) is used. Buffer A is 0.1% TFA in water. One unit of activity is defined as the hydrolysis of 1 nmol of r-ANF per minute at 37° C. at pH 7.4. IC50 values for inhibition of the enzyme are determined, i.e. the concentration of test compound required for 50% inhibition of the hydrolysis of ANF.
The test compound is dissolved in dimethyl sulfoxide or 0.25M sodium bicarbonate solution, and the solution is diluted with pH 7.4 buffer to the desired concentration.
In vitro testing is most appropriate for the free mercapto carboxylic acids of the invention.

[2] = target: T2, Neutral endopeptidase 3.4.24.11 (Rattus norvegicus, UniProt P07861); test: in vitro inhibition of neutral endopeptidase (NEP) 3.4.24.11, GAAP substrate; assay type: biochemical; details: pH 7.4, 25° C.
T2 construct: rat kidney cortex membranes prepared by method of Maeda et al, 1983; from tissue; host or cells: rat kidney cortex membranes
T2 sequence (P07861 1-750): T1 sequence (P07861 1-750)

[3] = target: T3, angiotensin-converting enzyme (ACE) (Oryctolagus cuniculus, UniProt P12822); test: in vitro inhibition of the angiotensin-converting enzyme (ACE), hippuryl-histidyl-leucine substrate; assay type: biochemical, rabbit; details: 37° C., 30 minutes
T3 construct: angiotensin-converting enzyme preparation (from lungs of adult male rabbits); from tissue; host or cells: lungs of adult male rabbits
T3 sequence (P12822 34-1310): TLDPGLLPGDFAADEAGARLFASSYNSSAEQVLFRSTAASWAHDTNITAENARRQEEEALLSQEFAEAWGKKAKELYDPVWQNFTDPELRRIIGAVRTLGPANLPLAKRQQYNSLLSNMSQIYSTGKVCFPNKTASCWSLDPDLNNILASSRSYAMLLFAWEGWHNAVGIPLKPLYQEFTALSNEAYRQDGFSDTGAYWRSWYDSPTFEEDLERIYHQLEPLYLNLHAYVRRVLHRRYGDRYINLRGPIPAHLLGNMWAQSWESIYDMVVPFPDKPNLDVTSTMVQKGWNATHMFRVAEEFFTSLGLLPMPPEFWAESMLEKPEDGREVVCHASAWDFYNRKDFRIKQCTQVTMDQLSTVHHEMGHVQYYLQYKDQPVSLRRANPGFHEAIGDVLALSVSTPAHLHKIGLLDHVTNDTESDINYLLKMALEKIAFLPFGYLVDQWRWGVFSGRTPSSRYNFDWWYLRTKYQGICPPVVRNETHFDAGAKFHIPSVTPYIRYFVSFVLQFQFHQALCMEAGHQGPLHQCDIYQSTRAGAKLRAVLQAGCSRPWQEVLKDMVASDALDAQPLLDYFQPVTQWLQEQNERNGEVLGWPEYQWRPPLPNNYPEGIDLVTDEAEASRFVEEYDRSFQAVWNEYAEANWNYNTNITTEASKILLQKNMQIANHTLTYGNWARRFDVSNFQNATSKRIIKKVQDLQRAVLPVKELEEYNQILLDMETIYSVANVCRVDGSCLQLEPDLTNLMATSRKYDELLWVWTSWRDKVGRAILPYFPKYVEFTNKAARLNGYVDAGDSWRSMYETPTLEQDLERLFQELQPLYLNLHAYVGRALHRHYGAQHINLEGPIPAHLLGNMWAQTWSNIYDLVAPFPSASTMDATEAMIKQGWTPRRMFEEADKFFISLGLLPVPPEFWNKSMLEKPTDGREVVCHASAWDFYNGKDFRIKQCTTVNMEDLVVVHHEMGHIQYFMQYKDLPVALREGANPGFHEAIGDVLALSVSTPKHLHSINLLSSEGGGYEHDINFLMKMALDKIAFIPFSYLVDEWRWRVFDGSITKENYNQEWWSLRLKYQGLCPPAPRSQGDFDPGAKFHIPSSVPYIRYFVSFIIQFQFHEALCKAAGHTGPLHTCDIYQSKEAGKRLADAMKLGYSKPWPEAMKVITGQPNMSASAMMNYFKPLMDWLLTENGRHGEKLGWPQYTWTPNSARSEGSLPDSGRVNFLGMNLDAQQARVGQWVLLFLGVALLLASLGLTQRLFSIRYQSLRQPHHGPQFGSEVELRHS
Protocol: Biophys. Acta 293, p. 451 (1973). For example, said compounds are dissolved at about 1 mM concentration in phosphate buffer. To 100 microliters of solutions of the test compound in phosphate buffer, diluted to the desired concentration, are added 100 microliters of 5 mM hippuryl-histidyl-leucine in phosphate buffer, followed by 50 microliters of the angiotensin-converting enzyme preparation (from lungs of adult male rabbits) in Tris buffer, containing potassium and magnesium chloride, as well as sucrose. Said solutions are incubated at 37° C. for 30 minutes and combined with 0.75 ml of 0.6N aqueous sodium hydroxide to stop further reaction. Then 100 microliters of a 0.2% solution of o-phthalaldehyde in methanol are added at room temperature, and 10 minutes later 100 microliters of 6N hydrochloric acid. These samples are read against water in a spectrophotometer set at 360 nm, and the optical densities thereof estimated. They are corrected for the standard curve via a conversion factor expressing nanomoles of histidyl-leucine formed during said 30 minute incubation period. The results are plotted against drug concentration to determine the IC50, i.e., the drug concentration which gives half the activity of the control sample containing no drug.

| Structure (SMILES) | relative NEP inhibiting activity of isomers [1] | IC50 [2] [nM] | IC50 [3] [nM] | IC50 [1] [nM] |
| --- | --- | --- | --- | --- |
| O=C1N[C@@H](C(=O)O)CCCCCC[C@H]1CS (relative stereo) [Example 2(b), 3-mercaptomethyl-2-oxo-1-azacyclodecane-10-carboxylic acid] | less active diastereoisomer | – | – | – |
| O=C1N[C@@H](C(=O)O)CCCCCC[C@@H]1CS (relative stereo) [trans 3-mercaptomethyl-2-oxo-1-azacyclodecane-10-carboxylic acid] | more active neutral endopeptidase (NEP) inhibiting diastereoisomer | ~3 | – | – |
| O=C1N[C@H](C(=O)O)CSCCCCCCCC1CS (single isomer, unassigned) | more active NEP inhibiting isomer | – | 12 | 18 |
| O=C1NC(C(=O)O)CCCCCCCCCCC1CS (stereo not drawn) [3-mercaptomethyl-2oxo-1-azacyclotetradecane-14-carboxylic acid] | – | – | ~45 | ~30 |

The remaining lines, values ahead:

| relative NEP inhibiting activity of isomers [1] | IC50 [2] [nM] | IC50 [3] [nM] | IC50 [1] [nM] | Structure (SMILES) |
| --- | --- | --- | --- | --- |
| more active NEP inhibiting enantiomer | – | – | – | CC(=O)SC[C@H]1CCCCCC[C@H](C(=O)O)NC1=O (relative stereo) [Example 16, trans 3-(acetylthiomethyl)-2-oxo-1-azacyclodecane-10-carboxylic acid] |
| more active NEP inhibiting isomer | – | – | – | COC(=O)C1CCCCCCCCCCC(CSC(C)=O)C(=O)N1 (single isomer, unassigned) [Example 24 (minor isomer), methyl 3-(acetylthiomethyl)-2-oxo-1-azacyclotetradecane-14-carboxylate] |
| more active NEP inhibiting isomer | – | – | – | O=C1NC(C(=O)O)CCCCCCCCCCC1CS (single isomer, unassigned) [Example 25(b), 3-mercaptomethyl-2-oxo-1-azacyclotetradecane-14-carboxylic acid] |
| more active NEP inhibiting isomer | – | – | – | O=C1N[C@H](C(=O)O)CSCCCCCCCCC1CS (single isomer, unassigned) [Example 35(b)] |
